Assay results from paper PMC5286506 (Scientific Reports, 2017).
Read-outs that look alike come from different tables or passages of the source.

Experiments:
[1] = tested on: X4-tropic HIV-1IIIb; assay: HIV-1IIIb infection of activated PBMCs, HIV-1 gag p24 ELISA on day 7; assay type: cell-based
Experimental: (§1) Mock-infected PBMCs were used as the negative control.
(§2) The antiviral activity of each drug, M48U1 and tenofovir, formulated in 0.25% HEC hydrogel was determined in an activated PBMC model. […] This mixture was added to PBMCs activated with IL-2 and PHA for a two-hour incubation at 37 °C. To evaluate the antiviral effect of M48U1, the level of HIV-1 gag p24 protein in the culture supernatant was determined at seven days post-infection using an ELISA. A significant decrease (p < 0.05; Mann Whitney test) in the HIV-1 p24 level was found (Fig. 1).
(§3) Figure 1 M48U1 and tenofovir formulated in 0.25% HEC each inhibited the replication of both R5-tropic HIV-1BaL and X4-tropic HIV-1IIIb in activated PBMCs. […] After this incubation, these solutions were used to resuspend activated PBMCs for 2 hours at 37 °C. HIV-1 replication was monitored by a HIV-1 p24 ELISA assay on the cell culture supernatants performed on day 7 post-infection. […] Three experiments in triplicate were performed.

[2] = tested on: HSV-2; design: method as in PMID 20643915, PMID 22018238, PMID 20709216; conditions: CAPRISA 004 trial; cited from earlier work
[3] = tested on: R5-tropic HIV-1BaL; assay: HIV-1BaL infection of activated PBMCs, HIV-1 gag p24 ELISA on day 7; assay type: cell-based
Experimental: as §1, §2, §3

[4] = tested on: pTHRO.c/2626 T/F IMC; assay: T/F IMC infection of TZM-bl cells, luciferase readout; assay type: cell-based, HIV-1; conditions: pTHRO.c/2626, TZM-bl cells
Experimental: (§4) TZM-bl cells (1 × 10^4/well in a 100 μL volume) in 10% D-MEM growth medium containing DEAE-dextran (Sigma) at a final concentration of 7.5 μg/mL were then added to the plate. Assay controls included replicate wells of TZM-bl cells alone in HEC 0.25% (cell control) and TZM-bl cells with virus (virus control). Following 72 hours of incubation at 37 °C, 150 μL of culture medium were removed from each well and replaced with 100 μL of Bright-Glo luciferase reagent (Promega). After 2-minutes of incubation, 150 μL of the cell lysate were transferred to a 96-well white solid plate and luminescence was measured using a Victor Light 2030 luminometer (Perkin Elmer). The percentage of infection for each T/F strain was calculated by comparing the relative luminescence units (RLU) of the virus control wells after subtraction of the cell control RLU[44].
(§5) Figure 2 M48U1 in 0.25% HEC and tenofovir in 0.25% HEC each inhibited several laboratory strains and patient-derived HIV-1 isolates. Treatment with either 1 μM M48U1/0.25% (A) or 5 μM tenofovir/0.25% HEC (B) inhibited the replication of all tested laboratory and patient-derived strains. The HIV-1 strain tropism was determined with a sequencing analysis for the patient-derived strains. […] HIV-1 replication was monitored by the HIV-1 p24 ELISA assay using cell culture supernatants obtained on day 7 post-infection. […]

[5] = MTT tissue viability in the EpiVaginal tissue model; assay type: cell-based; conditions: human, EpiVaginal tissue model (cervicovaginal cultures), 20 μM tenofovir and/or 6.7 μM M48U1 in 0.25% HEC
Experimental: (§6) At the end of the incubation at 37 °C, the hydrogel was discarded and the cervicovaginal cultures were washed with PBS to remove any residual hydrogel. The cervicovaginal cultures were analyzed using the MTT kit protocol (MatTek Corporation). Cell cultures incubated with sterile distilled water were employed as a negative control. Triton X-100 (1%)-treated cultures were used as the positive control. The LDH cytotoxicity detection kit (TaKaRa Bio Inc, Japan) was used to detect LDH release from the tissues according to the manufacturer’s protocols. […] After incubation, the concentration of IL-1α in the culture medium was measured using the IL-1α ELISA Kit, according to the manufacturer’s instructions (Bender Medsystem, Wien, Austria). The concentration of IL-1α was calculated by interpolation from a standard calibration curve.

[6] = tested on: pREJO.c/2864 T/F IMC; assay: T/F IMC infection of TZM-bl cells, luciferase readout; assay type: cell-based, HIV-1; conditions: pREJO.c/2864, TZM-bl cells
Experimental: as §4, §5

[7] = tested on: HIV-1BaL; assay: HIV-1BaL-infected cervicovaginal histoculture (EpiVaginal), proviral DNA qPCR; assay type: cell-based; conditions: day 4 post-infection, vs HEC-treated infected samples
Experimental: The EpiVaginal Tissue Model (VLC-100FT; MatTek Corporation, Ashland, MA, USA) was maintained in a 24-well plate according to the manufacturer’s instructions. […] Subsequently, the wells were challenged with HIV-1BaL (25 ng p24/tissue well) for 24 hours. Mock-infected 0.25% HEC-treated wells were used as negative control. The apical surface of each tissue was washed twice with PBS after incubation with HIV-1BaL and the same formulations were added on day 1 for 24 hours. The underlying media was changed every day, and cervicovaginal tissues were harvested on day 4 post-infection.
Total DNA was extracted and purified from the tissues using the QIAamp DNA Mini Kit (Qiagen, Hilden, Germany). Proviral DNA was quantified by real-time quantitative PCR assay using the HIV-1 DNA qPCR kit (Diatheva, Fano, Italy) based on SYBR Green chemistry as indicated by the manufacturer. […] Total DNA amount was determined by spectrophotometry. The amplification was carried out as follows: an initial cycle of denaturation step at 95 °C for 15 minutes, followed by 10 cycles of denaturation at 95 °C for 15 seconds and annealing/extension at 68 °C for 35 seconds, and a final 35 cycles of denaturation at 95 °C for 15 seconds and annealing/extension with fluorescence acquisition at 68 °C for 35 seconds. […]

[8] = tested on: HIV-1 subtype B and C isolates (HIV-1AMBR5N, HIV-1FBR5N, HIV-1SLR5N, HIV-1ARR5X4, HIV-1CSBX4); assay: Patient-derived HIV-1 isolates in activated PBMCs, p24 ELISA on day 7; assay type: cell-based; conditions: 1 μM M48U1 (five isolates) or 5 μM tenofovir (three isolates from naïve patients) in 0.25% HEC; p < 0.05
Experimental: as §1
(§7) Figure 2 M48U1 in 0.25% HEC and tenofovir in 0.25% HEC each inhibited several laboratory strains and patient-derived HIV-1 isolates. Treatment with either 1 μM M48U1/0.25% (A) or 5 μM tenofovir/0.25% HEC (B) inhibited the replication of all tested laboratory and patient-derived strains. The HIV-1 strain tropism was determined with a sequencing analysis for the patient-derived strains. The combination of the two HIV-1 drugs inhibited HIV-1 replication independent of the HIV-1 strain tropism. HIV-1 replication was monitored by the HIV-1 p24 ELISA assay using cell culture supernatants obtained on day 7 post-infection. […] Three experiments in triplicate were performed. Analysis of antiretroviral activity of 1 μM M48U1 in 0.25% HEC (C) or 5 μM tenofovir in 0.25% HEC (D) performed in TZM-bl cells infected with pREJO.c/2864 and pTHRO.c/2626 T/F IMCs. […] Each sample was performed in triplicate and was repeated in three independent experiments.

[9] = in vitro; conditions: human, activated PBMCs
[10] = tested on: EpiVaginal tissue model; conditions: human, 20 μM
Experimental: as §6

[11] = tested on: HIV-1BaL, HIV-1IIIb, HIV-1ADA, HIV-1RU132, HIV-1ARV-2, HIV-1CBL4; assay: Laboratory HIV-1 strains in activated PBMCs, p24 ELISA on day 7; assay type: cell-based; conditions: 1 μM M48U1 or 5 μM tenofovir in 0.25% HEC; p < 0.05
Experimental: as §1, §7

[12] = 1 μM M48U1 or 5 μM tenofovir in 0.25% HEC
[13] = 6.7 μM M48U1 or 20 μM tenofovir in 0.25% HEC

C[C@H](Cn1cnc2c(N)ncnc21)OCP(=O)(O)O [tenofovir]
inhibition of HIV-1IIIb replication [1, 12]: over 90%
IC50 ([1]; Human immunodeficiency virus 1, PBMC, 168 h, HIV-1IIIb, activated PBMCs, drug in 0.25% HEC, p24 day 7 post-infection): 1.08 µM
decrease of HSV-2 infections [2]: 51%
inhibition of HIV-1BaL replication [3, 12]: over 90%
IC50 ([3]; Human immunodeficiency virus 1, PBMC, 168 h, HIV-1BaL, activated PBMCs, drug in 0.25% HEC, p24 day 7 post-infection): 1.22 µM
reduction in viral replication [4, 12]: 78%
reduction in viral replication [4, 13]: 93%
viability at 1 h, 20 μM ([5]; 1 hour): 95%
viability at 4 h, 20 μM ([5]; 4 hours): 96%
viability at 18 h, 20 μM ([5]; 18 hours): 88%
viability at 96 h, 20 μM ([5]; 96 hours): 104%
reduction in viral replication [6, 12]: 86.8%
reduction in viral replication [6, 13]: 95%
decrease in the amount of proviral HIV-1 DNA (folds of inhibition, mean) ([7]; 0.67 μM M48U1, 2 μM tenofovir or both in 0.25% HEC): 11 fold
decrease in the amount of proviral HIV-1 DNA (folds of inhibition, mean) ([7]; 6.7 μM M48U1, 20 μM tenofovir or both in 0.25% HEC): ~45 fold
infection of PBMCs with patient-derived HIV-1 subtype B and C isolates [8]: inhibited viral replication in all three cases
CC50 at 7 days [9]: > 20 µM
LDH release (Abs) ([10]; 1 h): 0.207 ± 0.06 Abs
LDH release (Abs) ([10]; 4 h): 0.381 ± 0.05 Abs
LDH release (Abs) ([10]; 18 h): 0.922 ± 0.2 Abs
LDH release (Abs) ([10]; 96 h): 1.498 ± 0.13 Abs
replication of laboratory HIV-1 strains (p24 in cell supernatant) [11]: suppressed the replication of all HIV-1 strains tested
